Experimental data: patent publication US10633407B2, “14-membered ketolides and methods of their preparation and use” (President and Fellows of Harvard College, priority 2014, dated 2020)
In brackets after ≈: the same amount, converted by molar mass. Where two headings read alike, the source gives them in different places.

Tests used:
Assay in all cases: CLSI broth dilution MIC determination
Assay type in all cases: cell-based
[1] = test system: E. faecalis Vancomycin-resistant
[2] = test system: P. aeruginosa HPA101-1477; conditions: Gram-negative
K. pneumoniae KPC-2 = conditions: Gram-negative
A. baumannii ATCC 19606 = test system: A. baumannii ATCC 19606
K. pneumoniae ATCC 10031 = test system: K. pneumoniae ATCC 10031
[3] = test system: A. baumannii imipenem-resistant; conditions: Gram-negative
S. pneumoniae ATCC 49619 = test system: S. pneumoniae ATCC 49619
Outline: (§1)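 MICs were measured by broth dilution following CLSI standard procedures. Azithromycin and solithromycin served as control macrolides in many cases. Macrolide-resistance genotypes in the panel may be constitutive or inducible.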

H. influenzae ATCC49247 = conditions: Gram-negative
Outline: as §1

[4] = test system: S. pneumoniae mef A genotype (second strain so labelled)
Outline: as §1

E. coli CTX-M-14 = conditions: Gram-negative
Outline: as §1

S. aureus MRSA: USA300 = test system: S. aureus MRSA: USA300
Outline: as §1

E. coli ATCC 25922 = test system: E. coli ATCC 25922
Outline: as §1

[5] = test system: S. pneumoniae erm B + mef A genotype; conditions: S. pneumoniae erm B + mef A genotype; Gram-positive
Outline: as §1

K. pneumoniae TEM-10 = conditions: Gram-negative
S. aureus MRSA: USA100 = test system: S. aureus MRSA: USA100
Outline: as §1

S. aureus erm A genotype = test system: S. aureus erm A genotype
Outline: as §1

E. coli NDM-1 = conditions: Gram-negative
Outline: as §1

E. coli TEM-1 = conditions: E. coli TEM-1; Gram-negative
Outline: as §1

S. aureus ATCC 29213 = test system: S. aureus ATCC 29213
Outline: as §1

S. aureus USA600, GISA = test system: S. aureus USA600, GISA
Outline: as §1

S. pyogenes ATCC 19615 = test system: S. pyogenes ATCC 19615
[6] = test system: S. pyogenes Macrolide-resistant
P. aeruginosa ATCC 27853 = test system: P. aeruginosa ATCC 27853
E. faecalis ATCC 29212 = test system: E. faecalis ATCC 29212
[7] = test system: A. baumannii chromosomal class C; conditions: Gram-negative
A. baumannii IMP-4 = conditions: Gram-negative
K. pneumoniae SHV-12 = conditions: Gram-negative
[8] = test system: H. influenzae Erythro >4, Azithro 1; conditions: H. influenzae Erythro >4, Azithro 1; Gram-negative
Description: MIC data was collected for the novel macrolides that this platform has produced against over 21 unique strains of B. subtilis, E. coli, S. aureus, S. pneumoniae, and H. influenzae, including several multidrug-resistant strains, with a special focus on macrolide resistant mechanisms (vide supra). […] CLSI standard procedures for broth dilution MIC determination were used. […] These genotypes can be constitutive or inducible.

[9] = test system: A. baumannii MP-576 Clinical-MDR; conditions: Acinetobacter baumannii, read-out: MIC
[10] = test system: K. pneumoniae MP-548 clinical; conditions: Klebsiella pneumoniae, MP548CLINICAL, read-out: MIC
P. aeruginosa MP-7 PAO1 = conditions: Pseudomonas aeruginosa, read-out: MIC
[11] = test system: K. pneumoniae MP-546 Clinical-MDR; conditions: Klebsiella pneumoniae, read-out: MIC
[12] = test system: E. coli MP-9 ATCC25922:tolC; conditions: Escherichia coli, ATCC25922
Outline: as §1

[13] = test system: S. pneumoniae mef A genotype (first strain so labelled); conditions: Streptococcus pneumoniae, first strain (MP-626 UNT-038)
Outline: as §1

E. coli MP-541 clinical = conditions: Escherichia coli, MP541CLINICAL, read-out: MIC
Outline: as §1

[14] = test system: S. aureus MP-17 ATCCBAA-977 (BAA 977 iErm); conditions: Staphylococcus aureus; S. aureus MP-17, ATCCBAA-977, iErm; read-out: MIC
Outline: as §1

[15] = test system: S. aureus (MRSA) MP-513 ST-228 cErm (Clinical-cErm); conditions: Staphylococcus aureus, read-out: MIC
Outline: as §1

[16] = test system: E. coli MP-532 clinical-cErmB; conditions: Escherichia coli
Outline: as §1

[17] = test system: A. baumannii MP-577 Clinical-AZT low; conditions: Acinetobacter baumannii, read-out: MIC
[18] = test system: P. aeruginosa MP-8 PAO1:mex (mex-oprM-deletion); conditions: Pseudomonas aeruginosa, PAO1
[19] = E. faecalis Vancomycin-resistant, Gram-positive
[20] = A. baumannii ATCC 19606, Gram-negative
[21] = K. pneumoniae ATCC 10031, Gram-negative
[22] = S. pneumoniae ATCC 49619, Gram-positive
[23] = S. aureus MRSA: USA300, Gram-positive
[24] = E. coli ATCC 25922, Gram-negative
[25] = S. aureus MRSA: USA100, Gram-positive
[26] = S. aureus erm A genotype, Gram-positive
[27] = S. aureus ATCC 29213, Gram-positive
[28] = S. aureus USA600, GISA, Gram-positive
[29] = S. pyogenes ATCC 19615, Gram-positive
[30] = S. pyogenes Macrolide-resistant, Gram-positive
[31] = P. aeruginosa ATCC 27853, Gram-negative
[32] = E. faecalis ATCC 29212, Gram-positive

Compound: CC[C@H]1OC(=O)[C@H](C)C(=O)[C@H](C)[C@@H](O[C@@H]2OC(C)CC(N(C)C)C2O)[C@](C)(OC)C[C@@H](C)C(=O)[C@H](C)[C@H]2N(CC3CC3Cn3cc(-c4cccc(N)c4)nn3)C(=O)O[C@]12C (some centres unmarked) [FSM-100429]
- MIC [1, 19]: > 32 µg/mL
- MIC [2]: > 32 µg/mL
- MIC (K. pneumoniae KPC-2): > 32 µg/mL
- MIC (A. baumannii ATCC 19606; [20]): > 32 µg/mL
- MIC (K. pneumoniae ATCC 10031; [21]): 32 µg/mL (≈ 38.1 µM)
- MIC [3]: 32 µg/mL (≈ 38.1 µM)
- MIC (S. pneumoniae ATCC 49619; [22]): < 0.0312 µg/mL
- MIC (H. influenzae ATCC49247): > 32 µg/mL
- MIC ([4]; Gram-positive): 0.0625 µg/mL (≈ 0.0745 µM)
- MIC (E. coli CTX-M-14): > 32 µg/mL
- MIC (S. aureus MRSA: USA300; [23]): > 32 µg/mL
- MIC (E. coli ATCC 25922; [24]): > 32 µg/mL
- MIC [5]: > 32 µg/mL
- MIC (K. pneumoniae TEM-10): > 32 µg/mL
- MIC (S. aureus MRSA: USA100; [25]): > 32 µg/mL
- MIC (S. aureus erm A genotype; [26]): > 32 µg/mL
- MIC (E. coli NDM-1): > 32 µg/mL
- MIC (E. coli TEM-1): > 32 µg/mL
- MIC (S. aureus ATCC 29213; [27]): 0.125 µg/mL (≈ 0.149 µM)
- MIC (S. aureus USA600, GISA; [28]): > 32 µg/mL
- MIC (S. pyogenes ATCC 19615; [29]): < 0.0312 µg/mL
- MIC [6, 30]: < 0.0312 µg/mL
- MIC (P. aeruginosa ATCC 27853; [31]): > 32 µg/mL
- MIC (E. faecalis ATCC 29212; [32]): < 0.0312 µg/mL
- MIC [7]: 32 µg/mL (≈ 38.1 µM)
- MIC (A. baumannii IMP-4): > 32 µg/mL
- MIC (K. pneumoniae SHV-12): > 32 µg/mL
- MIC [8]: > 32 µg/mL

Compound: CC[C@H]1OC(=O)[C@@](C)(F)C(=O)[C@H](C)[C@@H](O[C@@H]2OC(C)CC(N(C)C)C2O)[C@](C)(OC)C[C@@H](C)C(=O)[C@H](C)[C@H]2N(C/C=C\Cn3cc(-c4cccc(N)c4)nn3)C(=O)O[C@]12C (some centres unmarked) [FSM-100431]
- MIC [1, 19]: > 32 µg/mL
- MIC [2]: > 32 µg/mL
- MIC (K. pneumoniae KPC-2): > 32 µg/mL
- MIC (A. baumannii ATCC 19606; [20]): 16 µg/mL (≈ 19 µM)
- MIC (K. pneumoniae ATCC 10031; [21]): 32 µg/mL (≈ 38 µM)
- MIC [3]: 16 µg/mL (≈ 19 µM)
- MIC (S. pneumoniae ATCC 49619; [22]): < 0.0312 µg/mL
- MIC (H. influenzae ATCC49247): > 32 µg/mL
- MIC ([4]; Gram-positive): < 0.0312 µg/mL
- MIC (E. coli CTX-M-14): > 32 µg/mL
- MIC (S. aureus MRSA: USA300; [23]): > 32 µg/mL
- MIC (E. coli ATCC 25922; [24]): > 32 µg/mL
- MIC [5]: 8 µg/mL
- MIC (K. pneumoniae TEM-10): > 32 µg/mL
- MIC (S. aureus MRSA: USA100; [25]): > 32 µg/mL
- MIC (S. aureus erm A genotype; [26]): > 32 µg/mL
- MIC (E. coli NDM-1): > 32 µg/mL
- MIC (E. coli TEM-1): > 32 µg/mL
- MIC (S. aureus ATCC 29213; [27]): 0.125 µg/mL (≈ 0.148 µM)
- MIC (S. aureus USA600, GISA; [28]): > 32 µg/mL
- MIC (S. pyogenes ATCC 19615; [29]): < 0.0312 µg/mL
- MIC [6, 30]: < 0.0312 µg/mL
- MIC (P. aeruginosa ATCC 27853; [31]): > 32 µg/mL
- MIC (E. faecalis ATCC 29212; [32]): < 0.0312 µg/mL
- MIC [7]: 8 µg/mL (≈ 9.49 µM)
- MIC (A. baumannii IMP-4): > 32 µg/mL
- MIC (K. pneumoniae SHV-12): > 32 µg/mL
- MIC [8]: > 32 µg/mL

Compound: CC[C@H]1OC(=O)[C@H](C)C(=O)[C@H](C)[C@@H](O[C@@H]2OC(C)CC(N(C)C)C2O)[C@](C)(OC)C[C@@H](C)C(=O)[C@H](C)[C@H]2N(CC#CCn3cc(-c4cccc(N)n4)nn3)C(=O)O[C@]12C (some centres unmarked) [FSM-100551]
- MIC ([1]; Enterococcus faecalis, E. faecalis Vancomycin-resistant (UNT-039), read-out: MIC): 4 µg/mL (≈ 4.85 µM)
- MIC [9]: > 64 µg/mL
- MIC [10]: 32 µg/mL (≈ 38.8 µM)
- MIC (A. baumannii ATCC 19606; Acinetobacter baumannii, ATCC19606, A. baumannii ATCC 19606 (MP-15), read-out: MIC): 4 µg/mL (≈ 4.85 µM)
- MIC (K. pneumoniae ATCC 10031; Klebsiella pneumoniae, ATCC10031, K. pneumoniae ATCC 10031 (MP-14), read-out: MIC): 8 µg/mL (≈ 9.71 µM)
- MIC (P. aeruginosa MP-7 PAO1): 32 µg/mL (≈ 38.8 µM)
- MIC [11]: > 64 µg/mL
- MIC [12]: 2 µg/mL (≈ 2.43 µM)
- MIC (S. pneumoniae ATCC 49619; Streptococcus pneumoniae, ATCC49619, S. pneumoniae ATCC 49619 (MP-21), read-out: MIC): < 0.03 µg/mL
- MIC ([4]; Streptococcus pneumoniae, second strain (MP-627 UNT-039), read-out: MIC): < 0.03 µg/mL
- MIC (S. aureus MRSA: USA300; Staphylococcus aureus, S. aureus MRSA: USA300 (MP-549, msr(a)), read-out: MIC): 0.125 µg/mL (≈ 0.152 µM)
- MIC [13]: < 0.03 µg/mL
- MIC (E. coli ATCC 25922; Escherichia coli, ATCC25922, E. coli ATCC 25922 (MP-4), read-out: MIC): 8 µg/mL (≈ 9.71 µM)
- MIC (E. coli MP-541 clinical): 16 µg/mL (≈ 19.4 µM)
- MIC [14]: 0.06 µg/mL (≈ 0.0728 µM)
- MIC (S. aureus MRSA: USA100; Staphylococcus aureus, S. aureus MRSA: USA100 (MP-618 UNT-096), read-out: MIC): > 64 µg/mL
- MIC (S. aureus erm A genotype; Staphylococcus aureus, S. aureus erm A genotype (MP-620 UNT-146), read-out: MIC): > 64 µg/mL
- MIC [15]: > 64 µg/mL
- MIC (S. aureus ATCC 29213; Staphylococcus aureus, ATCC29213, S. aureus ATCC 29213 (MP-12), read-out: MIC): 0.06 µg/mL (≈ 0.0728 µM)
- MIC (S. aureus USA600, GISA; Staphylococcus aureus, S. aureus USA600, GISA (MP-619 UNT-120), read-out: MIC): 64 µg/mL (≈ 77.7 µM)
- MIC [16]: > 64 µg/mL
- MIC (S. pyogenes ATCC 19615; Streptococcus pyogenes, ATCC19615, S. pyogenes ATCC 19615 (MP-19), read-out: MIC): < 0.03 µg/mL
- MIC ([6]; Streptococcus pyogenes, S. pyogenes Macrolide-resistant (MP-625 UNT-014), read-out: MIC): 0.06 µg/mL (≈ 0.0728 µM)
- MIC (P. aeruginosa ATCC 27853; Pseudomonas aeruginosa, ATCC27853, P. aeruginosa ATCC 27853 (MP-3), read-out: MIC): 16 µg/mL (≈ 19.4 µM)
- MIC [17]: 16 µg/mL (≈ 19.4 µM)
- MIC (E. faecalis ATCC 29212; Enterococcus faecalis, ATCC29212, E. faecalis ATCC 29212 (MP-24), read-out: MIC): < 0.03 µg/mL
- MIC [18]: 4 µg/mL (≈ 4.85 µM)
